Measured values from patent EP4810052A2, “HCRHR2 SELECTIVE POLYPEPTIDES” (Gubra A/S, priority 2023, dated 2026).
pEC50: −log10 of the molar value. Where two headings read alike, the source gives them in different places. Starred links: 1 amine or outer side, 2 acyl side, 3 side chain; linkers in the order of their positions; H or OH if unused. Non-standard residues stand in square brackets, D forms with d. Residues, ends and D or L forms follow the SMILES beside them. Groups on a side chain read outwards from the residue. *: point of attachment. C20 diacid = O=C(O)CCCCCCCCCCCCCCCCCCC(=O)*; γGlu = O=C(O)[C@H](CCC(=O)[*:2])N[*:1]; Nle = CCCC[C@H](N)C(=O)O; AEEA = NCCOCCOCC(=O)O

Columns and labels:
hCRHR1 = target: T1, hCRHR1 (Homo sapiens, UniProt P34998); assay: HTRF cAMP assay, determination of hCRHR1 potency (peptide libraries 5 conc., purified peptides 11 conc.); type: cell-based; details: Table 3, matched molecular pairs X^38 L vs Nle, peptide library of Example 4; read-out: hCRHR1 pEC50 (converted)
T1 sequence (P34998 24-415): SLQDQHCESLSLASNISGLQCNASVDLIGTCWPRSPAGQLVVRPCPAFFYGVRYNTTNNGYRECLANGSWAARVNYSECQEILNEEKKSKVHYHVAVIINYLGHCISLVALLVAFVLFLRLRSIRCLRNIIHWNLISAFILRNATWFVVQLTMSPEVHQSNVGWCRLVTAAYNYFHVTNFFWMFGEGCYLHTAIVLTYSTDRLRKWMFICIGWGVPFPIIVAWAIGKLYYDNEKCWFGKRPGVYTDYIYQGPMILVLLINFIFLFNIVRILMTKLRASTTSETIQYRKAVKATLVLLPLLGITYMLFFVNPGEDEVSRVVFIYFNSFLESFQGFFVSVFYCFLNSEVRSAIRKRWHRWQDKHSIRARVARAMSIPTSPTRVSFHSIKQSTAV
In short: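 Cellular cAMP was read by time-resolved FRET between d2-labelled cAMP and cryptate anti-cAMP antibody. The cells were freshly thawed suspension CHO-K1 cells stably expressing human CRHR1.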

hCRHR2 = target: T2, hCRHR2 (Homo sapiens, UniProt Q13324); assay: HTRF cAMP assay, determination of hCRHR2 potency (peptide libraries 5 conc., purified peptides 11 conc.); type: cell-based; details: for EC50: Table 3, matched molecular pairs X^38 L vs Nle, peptide library of Example 4, read-out: hCRHR2 pEC50 (converted)
T2 sequence (Q13324 1-411): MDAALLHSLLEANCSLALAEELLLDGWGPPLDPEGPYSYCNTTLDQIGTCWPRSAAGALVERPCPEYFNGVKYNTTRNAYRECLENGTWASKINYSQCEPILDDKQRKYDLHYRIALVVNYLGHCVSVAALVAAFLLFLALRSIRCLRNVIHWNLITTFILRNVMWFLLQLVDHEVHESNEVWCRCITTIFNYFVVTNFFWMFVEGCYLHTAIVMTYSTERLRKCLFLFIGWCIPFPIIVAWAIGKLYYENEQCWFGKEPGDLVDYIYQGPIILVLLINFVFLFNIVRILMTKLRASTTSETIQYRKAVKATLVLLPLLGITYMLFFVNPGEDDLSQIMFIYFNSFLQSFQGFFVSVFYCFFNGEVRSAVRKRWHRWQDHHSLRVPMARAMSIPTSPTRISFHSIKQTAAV
In short: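 Frozen stocks of hCRHR2-expressing CHO-K1 cells, thawed just before testing, received peptide agonists in suspension; cAMP quantified by competitive HTRF immunoassay, with curves fitted by nonlinear regression (variable slope) for EC50.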

CC[C@H](C)[C@H](N)C(=O)N[C@H](C(=O)N[C@@H](CC(C)C)C(=O)N[C@@H](CO)C(=O)N[C@@H](CC(C)C)C(=O)N[C@@H](CC(=O)O)C(=O)N[C@H](C(=O)N1CCC[C@H]1C(=O)N[C@H](C(=O)NCC(=O)N[C@@H](CC(C)C)C(=O)N[C@@H](CC(C)C)C(=O)N[C@@H](CCC(N)=O)C(=O)N[C@H](C(=O)N[C@@H](CC(C)C)C(=O)N[C@@H](CC(C)C)C(=O)N[C@@H](CCC(=O)O)C(=O)N[C@@H](CCC(N)=O)C(=O)N[C@@H](C)C(=O)N[C@@H](CCCNC(=N)N)C(=O)N[C@@H](C)C(=O)N[C@@H](CCC(N)=O)C(=O)N[C@@H](C)C(=O)N[C@@H](C)C(=O)N[C@@H](CCCNC(=N)N)C(=O)N[C@@H](CCC(=O)O)C(=O)N[C@@H](CCC(N)=O)C(=O)N[C@@H](C)C(=O)N[C@@H](CCCCNC(=O)COCCOCCNC(=O)COCCOCCNC(=O)CC[C@H](NC(=O)CC[C@H](NC(=O)CCCCCCCCCCCCCCCCCCC(=O)O)C(=O)O)C(=O)O)C(=O)N[C@H](C(=O)N[C@@H](CC(N)=O)C(=O)N[C@@H](C)C(=O)N[C@@H](CCC(=O)O)C(=O)N[C@H](C(=O)N[C@@H](CC(C)C)C(=O)N[C@@H](C)C(=O)N[C@@H](CCC(=O)O)C(=O)N[C@H](C(N)=O)[C@@H](C)CC)[C@@H](C)CC)[C@@H](C)O)[C@@H](C)CC)[C@@H](C)CC)C(C)C)C(C)C [SEQ ID NO: 43] (H-IVLSLDVPIGLLQILLEQARAQAAREQAK([AEEA-AEEA-γGlu-γGlu-C20 diacid])TNAEILAEI-NH2)
EC50 (hCRHR1): 63100 nM
EC50 (hCRHR2): 0.501 nM

CCCC[C@H](NC(=O)[C@@H](NC(=O)[C@H](CCC(=O)O)NC(=O)[C@H](C)NC(=O)[C@H](CC(N)=O)NC(=O)[C@@H](NC(=O)[C@H](CCCCNC(=O)COCCOCCNC(=O)COCCOCCNC(=O)CC[C@H](NC(=O)CC[C@H](NC(=O)CCCCCCCCCCCCCCCCCCC(=O)O)C(=O)O)C(=O)O)NC(=O)[C@H](C)NC(=O)[C@H](CCC(N)=O)NC(=O)[C@H](CCC(=O)O)NC(=O)[C@H](CCCNC(=N)N)NC(=O)[C@H](C)NC(=O)[C@H](C)NC(=O)[C@H](CCC(N)=O)NC(=O)[C@H](C)NC(=O)[C@H](CCCNC(=N)N)NC(=O)[C@H](C)NC(=O)[C@H](CCC(N)=O)NC(=O)[C@H](CCC(=O)O)NC(=O)[C@H](CC(C)C)NC(=O)[C@H](CC(C)C)NC(=O)[C@@H](NC(=O)[C@H](CCC(N)=O)NC(=O)[C@H](CC(C)C)NC(=O)[C@H](CC(C)C)NC(=O)CNC(=O)[C@@H](NC(=O)[C@@H]1CCCN1C(=O)[C@@H](NC(=O)[C@H](CC(=O)O)NC(=O)[C@H](CC(C)C)NC(=O)[C@H](CO)NC(=O)[C@H](CC(C)C)NC(=O)[C@@H](NC(=O)[C@@H](N)[C@@H](C)CC)C(C)C)C(C)C)[C@@H](C)CC)[C@@H](C)CC)[C@@H](C)O)[C@@H](C)CC)C(=O)N[C@@H](C)C(=O)N[C@@H](CCC(=O)O)C(=O)N[C@H](C(N)=O)[C@@H](C)CC [SEQ ID NO: 44] (H-IVLSLDVPIGLLQILLEQARAQAAREQAK([AEEA-AEEA-γGlu-γGlu-C20 diacid])TNAEI[Nle]AEI-NH2)
EC50 (hCRHR1): 1260 nM
EC50 (hCRHR2): 0.1 nM

CCCC[C@H](NC(=O)[C@@H](NC(=O)[C@H](CCC(=O)O)NC(=O)[C@H](C)NC(=O)[C@H](CC(N)=O)NC(=O)[C@@H](NC(=O)[C@H](CCCCNC(=O)COCCOCCNC(=O)COCCOCCNC(=O)CC[C@H](NC(=O)CC[C@H](NC(=O)CCCCCCCCCCCCCCCCCCC(=O)O)C(=O)O)C(=O)O)NC(=O)[C@H](C)NC(=O)[C@H](CCC(N)=O)NC(=O)[C@H](CCC(=O)O)NC(=O)[C@H](CCCNC(=N)N)NC(=O)[C@H](C)NC(=O)[C@H](C)NC(=O)[C@H](CCCNC(=N)N)NC(=O)[C@H](C)NC(=O)[C@H](CCCNC(=N)N)NC(=O)[C@H](C)NC(=O)[C@H](CCC(N)=O)NC(=O)[C@H](CCC(=O)O)NC(=O)[C@H](CC(C)C)NC(=O)[C@H](CC(C)C)NC(=O)[C@@H](NC(=O)[C@H](CCC(N)=O)NC(=O)[C@H](CC(C)C)NC(=O)[C@H](CC(C)C)NC(=O)CNC(=O)[C@@H](NC(=O)[C@@H]1CCCN1C(=O)[C@@H](NC(=O)[C@H](CC(=O)O)NC(=O)[C@H](CC(C)C)NC(=O)[C@H](CO)NC(=O)[C@H](CC(C)C)NC(=O)[C@@H](NC(=O)[C@@H](N)[C@@H](C)CC)C(C)C)C(C)C)[C@@H](C)CC)[C@@H](C)CC)[C@@H](C)O)[C@@H](C)CC)C(=O)N[C@@H](C)C(=O)N[C@@H](CCC(=O)O)C(=O)N[C@H](C(N)=O)C(C)C [SEQ ID NO: 45] (H-IVLSLDVPIGLLQILLEQARARAAREQAK([AEEA-AEEA-γGlu-γGlu-C20 diacid])TNAEI[Nle]AEV-NH2)
EC50 (hCRHR1): 200 nM
EC50 (hCRHR2): 0.251 nM
Selectivity ratio (hCRHR1/ hCRHR2) (hCRHR2; Table 5): 107
pEC50 (hCRHR2; Table 5, purified peptides, read-out: hCRHR2 EC50): 9.28

CC[C@H](C)[C@H](N)C(=O)N[C@H](C(=O)N[C@@H](CC(C)C)C(=O)N[C@@H](CO)C(=O)N[C@@H](CC(C)C)C(=O)N[C@@H](CC(=O)O)C(=O)N[C@H](C(=O)N1CCC[C@H]1C(=O)N[C@H](C(=O)NCC(=O)N[C@@H](CC(C)C)C(=O)N[C@@H](CC(C)C)C(=O)N[C@@H](CCC(N)=O)C(=O)N[C@H](C(=O)N[C@@H](CC(C)C)C(=O)N[C@@H](CC(C)C)C(=O)N[C@@H](CCC(=O)O)C(=O)N[C@@H](CCC(N)=O)C(=O)N[C@@H](C)C(=O)N[C@@H](CCCNC(=N)N)C(=O)N[C@@H](C)C(=O)N[C@@H](CCCNC(=N)N)C(=O)N[C@@H](C)C(=O)N[C@@H](CCC(N)=O)C(=O)N[C@@H](CCCNC(=N)N)C(=O)N[C@@H](CCC(N)=O)C(=O)N[C@@H](CCC(N)=O)C(=O)N[C@@H](C)C(=O)N[C@@H](CCCCNC(=O)COCCOCCNC(=O)COCCOCCNC(=O)CC[C@H](NC(=O)CC[C@H](NC(=O)CCCCCCCCCCCCCCCCCCC(=O)O)C(=O)O)C(=O)O)C(=O)N[C@H](C(=O)N[C@@H](CC(N)=O)C(=O)N[C@@H](C)C(=O)N[C@@H](CCC(=O)O)C(=O)N[C@H](C(=O)N[C@@H](CC(C)C)C(=O)N[C@@H](C)C(=O)N[C@@H](CCC(=O)O)C(=O)N[C@H](C(N)=O)C(C)C)[C@@H](C)CC)[C@@H](C)O)[C@@H](C)CC)[C@@H](C)CC)C(C)C)C(C)C [SEQ ID NO: 46] (H-IVLSLDVPIGLLQILLEQARARAQRQQAK([AEEA-AEEA-γGlu-γGlu-C20 diacid])TNAEILAEV-NH2)
EC50 (hCRHR1): 2510 nM
EC50 (hCRHR2): 0.316 nM

CCCC[C@H](NC(=O)[C@@H](NC(=O)[C@H](CCC(=O)O)NC(=O)[C@H](C)NC(=O)[C@H](CC(N)=O)NC(=O)[C@@H](NC(=O)[C@H](CCCCNC(=O)COCCOCCNC(=O)COCCOCCNC(=O)CC[C@H](NC(=O)CC[C@H](NC(=O)CCCCCCCCCCCCCCCCCCC(=O)O)C(=O)O)C(=O)O)NC(=O)[C@H](C)NC(=O)[C@H](CCC(N)=O)NC(=O)[C@H](CCC(N)=O)NC(=O)[C@H](CCCNC(=N)N)NC(=O)[C@H](CCC(N)=O)NC(=O)[C@H](C)NC(=O)[C@H](CCCNC(=N)N)NC(=O)[C@H](C)NC(=O)[C@H](CCCNC(=N)N)NC(=O)[C@H](C)NC(=O)[C@H](CCC(N)=O)NC(=O)[C@H](CCC(=O)O)NC(=O)[C@H](CC(C)C)NC(=O)[C@H](CC(C)C)NC(=O)[C@@H](NC(=O)[C@H](CCC(N)=O)NC(=O)[C@H](CC(C)C)NC(=O)[C@H](CC(C)C)NC(=O)CNC(=O)[C@@H](NC(=O)[C@@H]1CCCN1C(=O)[C@@H](NC(=O)[C@H](CC(=O)O)NC(=O)[C@H](CC(C)C)NC(=O)[C@H](CO)NC(=O)[C@H](CC(C)C)NC(=O)[C@@H](NC(=O)[C@@H](N)[C@@H](C)CC)C(C)C)C(C)C)[C@@H](C)CC)[C@@H](C)CC)[C@@H](C)O)[C@@H](C)CC)C(=O)N[C@@H](C)C(=O)N[C@@H](CCC(=O)O)C(=O)N[C@H](C(N)=O)C(C)C [SEQ ID NO: 47] (H-IVLSLDVPIGLLQILLEQARARAQRQQAK([AEEA-AEEA-γGlu-γGlu-C20 diacid])TNAEI[Nle]AEV-NH2)
EC50 (hCRHR1): 63.1 nM
EC50 (hCRHR2): 0.2 nM
